Data published in ChEMBL document CHEMBL3351422, “Discovery of N-substituted 7-azaindoline derivatives as potent, orally available M1 and M4 muscarinic acetylcholine receptors selective agonists” (Bioorg Med Chem Lett, 2014).

What was measured:
[1] = Volume of distribution at steady state in monkey at 0.25 mg/kg, iv and 2.5 mg/kg, po; format: ADME, organism-based, Macaca mulatta; details: rhesus monkey, in vivo, read-out: Vdss
[2] = target: Muscarinic acetylcholine receptor M3 (Homo sapiens) (UniProt P20309); assay: Intrinsic activity at muscarinic M3 receptor (unknown origin) at 10 uM by calcium mobilization assay; format: functional
[3] = target: T1, Muscarinic acetylcholine receptor M5 (Homo sapiens) (UniProt P08912); assay: Intrinsic activity at muscarinic M5 receptor (unknown origin) at 10 uM by calcium mobilization assay; format: functional
T1 sequence (whole entry): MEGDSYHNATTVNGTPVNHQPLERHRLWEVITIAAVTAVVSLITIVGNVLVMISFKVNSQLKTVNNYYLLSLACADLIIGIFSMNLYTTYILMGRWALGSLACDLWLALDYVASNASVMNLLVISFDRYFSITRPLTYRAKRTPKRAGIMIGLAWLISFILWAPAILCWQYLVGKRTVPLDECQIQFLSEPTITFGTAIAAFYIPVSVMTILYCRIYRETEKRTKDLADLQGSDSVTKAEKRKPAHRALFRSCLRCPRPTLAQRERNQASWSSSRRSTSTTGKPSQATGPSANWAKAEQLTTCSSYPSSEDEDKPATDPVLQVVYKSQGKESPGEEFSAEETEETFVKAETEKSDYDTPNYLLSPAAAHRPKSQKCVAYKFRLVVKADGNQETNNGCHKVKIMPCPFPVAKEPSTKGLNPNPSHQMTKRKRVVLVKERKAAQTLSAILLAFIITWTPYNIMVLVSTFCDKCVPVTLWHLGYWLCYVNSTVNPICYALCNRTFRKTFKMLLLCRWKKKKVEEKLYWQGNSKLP

Rattus norvegicus [4] = assay: Antipsychotic-like effect in po dosed rat assessed as methamphetamine-induced locomotor hyperactivity; format: functional
[5] = target: Adrenergic receptor alpha-1 (Rattus norvegicus) (UniProt P15823+P23944+P43140); assay: Inhibition of rat alpha1 adrenergic receptor at 3 uM by radioligand binding assay
[6] = target: Alpha-2A adrenergic receptor (Homo sapiens) (UniProt P08913); assay: Inhibition of human alpha2A adrenergic receptor at 3 uM by radioligand binding assay
[7] = target: Beta-2 adrenergic receptor (Homo sapiens) (UniProt P07550); assay: Inhibition of human beta2 adrenergic receptor at 3 uM by radioligand binding assay
[8] = target: L-type calcium channel, benzothiazepine binding site (Rattus norvegicus, UniProt P22002+P27732+Q02485); assay: Inhibition of rat L-type calcium channel benzothiazepine binding site at 3 uM by radioligand binding assay; format: protein assay
[9] = target: L-type calcium channel, dihydropyridine binding site (Rattus norvegicus, UniProt P22002+P27732+Q02485); assay: Inhibition of rat L-type calcium channel dihydropyridine binding site at 3 uM by radioligand binding assay; format: protein assay
[10] = target: D(2) dopamine receptor (Homo sapiens) (UniProt P14416); assay: Inhibition of human dopamine D2S receptor at 3 uM by radioligand binding assay
[11] = target: D(4) dopamine receptor (Homo sapiens) (UniProt P21917); assay: Inhibition of human dopamine D4.2 receptor at 3 uM by radioligand binding assay
[12] = target: Endothelin-1 receptor (Homo sapiens) (UniProt P25101); assay: Inhibition of human ETA receptor at 3 uM by radioligand binding assay
[13] = target: Endothelin receptor type B (Homo sapiens) (UniProt P24530); assay: Inhibition of human ETB receptor at 3 uM by radioligand binding assay
Rattus norvegicus [14] = species: Rattus norvegicus; assay: Inhibition of rat GABAA central type receptor flunitrazepam binding site at 3 uM by radioligand binding assay
Rattus norvegicus [15] = species: Rattus norvegicus; assay: Inhibition of rat GABAB type receptor at 3 uM by radioligand binding assay
[16] = target: Glutamate NMDA receptor (Rattus norvegicus) (UniProt P35439+Q00959+Q00960+Q00961+Q62645+Q8VHN2+Q9R1M7); assay: Inhibition of rat NMDA receptor phencyclidine binding site at 3 uM by radioligand binding assay; format: protein-complex assay
Homo sapiens = species: Homo sapiens; assay: Inhibition of human nicotinic acetylcholine receptor at 3 uM by radioligand binding assay
[17] = target: Neuronal acetylcholine receptor; alpha4/beta2 (Rattus norvegicus) (UniProt P09483+P12390); assay: Displacement of [3H]cytisine from rat alpha4beta2 nAChR; format: protein-complex assay; details: concentration not given here
[18] = target: Neuronal acetylcholine receptor subunit alpha-7 (Rattus norvegicus) (UniProt Q05941); assay: Inhibition of rat nAChR alpha7 at 3 uM by methyllycaconitine binding assay
[19] = target: Kappa-type opioid receptor (Homo sapiens) (UniProt P41145); assay: Inhibition of human kappa opioid receptor at 3 uM by radioligand binding assay
Oryctolagus cuniculus = species: Oryctolagus cuniculus; assay: Inhibition of rabbit purinergic P2X receptor at 3 uM by radioligand binding assay
Rattus norvegicus [20] = species: Rattus norvegicus; assay: Inhibition of rat Rolipram binding site at 3 uM by radioligand binding assay
[21] = target: 5-hydroxytryptamine receptor 2B (Homo sapiens) (UniProt P41595); assay: Inhibition of human 5-HT2B receptor at 3 uM by radioligand binding assay
[22] = target: Somatostatin receptor type 4 (Homo sapiens) (UniProt P31391); assay: Inhibition of human SST4 receptor at 3 uM by radioligand binding assay
[23] = target: T2, Muscarinic acetylcholine receptor M1 (Homo sapiens) (UniProt P11229); assay: Agonist activity at muscarinic M1 receptor (unknown origin) at 0.3 uM by calcium mobilization assay; format: functional
T2 sequence (whole entry): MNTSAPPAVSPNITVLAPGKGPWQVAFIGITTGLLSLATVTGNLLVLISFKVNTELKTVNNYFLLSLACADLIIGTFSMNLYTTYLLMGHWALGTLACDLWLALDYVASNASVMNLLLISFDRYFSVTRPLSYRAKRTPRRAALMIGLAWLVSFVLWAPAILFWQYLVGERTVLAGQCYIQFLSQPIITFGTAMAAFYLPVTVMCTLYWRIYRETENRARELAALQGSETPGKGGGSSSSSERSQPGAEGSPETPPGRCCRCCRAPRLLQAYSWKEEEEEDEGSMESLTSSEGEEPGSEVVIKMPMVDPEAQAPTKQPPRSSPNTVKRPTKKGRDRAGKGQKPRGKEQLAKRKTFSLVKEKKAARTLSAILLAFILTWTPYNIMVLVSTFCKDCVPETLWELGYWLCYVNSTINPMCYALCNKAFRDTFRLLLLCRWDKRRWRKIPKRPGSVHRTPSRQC

[24] = target: Muscarinic acetylcholine receptor M3 (Homo sapiens) (UniProt P20309); assay: Agonist activity at muscarinic M3 receptor (unknown origin) at 0.3 uM by calcium mobilization assay; format: functional
[25] = target: Voltage-gated inwardly rectifying potassium channel KCNH2 (Homo sapiens, UniProt Q12809); assay: Inhibition of human ERG channel
[26] = Lipophilicity, log P of the compound; format: physicochemical; details: octanol/water
[27] = Cmax in rat at 0.25 mg/kg, iv and 2.5 mg/kg, po; format: ADME, organism-based; details: in vivo
[28] = Volume of distribution at steady state in rat at 0.25 mg/kg, iv and 2.5 mg/kg, po; format: ADME, organism-based; details: in vivo, read-out: Vdss
Cricetinae = details: 3 uM
Description: Inhibition of hamster potassium channel at 3 uM by radioligand binding assay

Muscarinic acetylcholine receptor M3 (Homo sapiens), sequence (P20309 whole entry, looked up): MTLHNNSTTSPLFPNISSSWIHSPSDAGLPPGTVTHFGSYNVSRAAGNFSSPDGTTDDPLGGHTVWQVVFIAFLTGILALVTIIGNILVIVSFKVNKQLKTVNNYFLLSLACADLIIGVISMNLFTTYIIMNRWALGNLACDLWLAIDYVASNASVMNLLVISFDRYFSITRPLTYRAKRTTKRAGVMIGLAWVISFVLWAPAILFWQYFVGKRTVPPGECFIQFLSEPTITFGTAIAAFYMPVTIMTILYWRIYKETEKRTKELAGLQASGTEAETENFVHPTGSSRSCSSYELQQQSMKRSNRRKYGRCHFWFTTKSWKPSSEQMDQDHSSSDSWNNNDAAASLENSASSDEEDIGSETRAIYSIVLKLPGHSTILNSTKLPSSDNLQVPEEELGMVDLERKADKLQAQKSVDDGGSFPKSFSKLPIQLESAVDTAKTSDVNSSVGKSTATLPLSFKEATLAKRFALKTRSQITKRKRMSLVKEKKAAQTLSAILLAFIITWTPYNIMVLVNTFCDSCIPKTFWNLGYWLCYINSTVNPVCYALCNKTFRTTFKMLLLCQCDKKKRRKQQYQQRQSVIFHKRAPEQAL
D(2) dopamine receptor (Homo sapiens), sequence (P14416 whole entry): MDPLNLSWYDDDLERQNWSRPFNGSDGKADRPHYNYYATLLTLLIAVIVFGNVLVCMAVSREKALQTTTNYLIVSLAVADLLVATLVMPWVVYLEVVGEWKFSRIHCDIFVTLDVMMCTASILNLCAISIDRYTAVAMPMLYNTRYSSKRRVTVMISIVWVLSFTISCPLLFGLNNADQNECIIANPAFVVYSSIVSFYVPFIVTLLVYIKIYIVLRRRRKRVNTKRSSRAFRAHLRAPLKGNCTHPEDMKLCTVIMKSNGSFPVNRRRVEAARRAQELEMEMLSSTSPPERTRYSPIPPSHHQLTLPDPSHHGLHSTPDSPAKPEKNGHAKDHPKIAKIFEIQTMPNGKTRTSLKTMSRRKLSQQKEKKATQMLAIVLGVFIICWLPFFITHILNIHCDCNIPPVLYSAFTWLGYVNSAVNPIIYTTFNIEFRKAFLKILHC
Somatostatin receptor type 4 (Homo sapiens), sequence (P31391 whole entry): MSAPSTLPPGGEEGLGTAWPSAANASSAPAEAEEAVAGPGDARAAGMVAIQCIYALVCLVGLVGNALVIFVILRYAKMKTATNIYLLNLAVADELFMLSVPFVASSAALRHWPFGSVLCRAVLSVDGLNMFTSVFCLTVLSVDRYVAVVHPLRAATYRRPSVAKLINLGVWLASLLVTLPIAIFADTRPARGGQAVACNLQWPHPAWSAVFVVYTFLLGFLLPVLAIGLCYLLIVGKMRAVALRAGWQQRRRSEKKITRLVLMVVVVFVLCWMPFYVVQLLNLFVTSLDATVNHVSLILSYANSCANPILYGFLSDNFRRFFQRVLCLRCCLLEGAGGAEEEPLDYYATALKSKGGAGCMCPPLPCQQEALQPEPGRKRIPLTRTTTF
D(4) dopamine receptor (Homo sapiens), sequence (P21917 whole entry): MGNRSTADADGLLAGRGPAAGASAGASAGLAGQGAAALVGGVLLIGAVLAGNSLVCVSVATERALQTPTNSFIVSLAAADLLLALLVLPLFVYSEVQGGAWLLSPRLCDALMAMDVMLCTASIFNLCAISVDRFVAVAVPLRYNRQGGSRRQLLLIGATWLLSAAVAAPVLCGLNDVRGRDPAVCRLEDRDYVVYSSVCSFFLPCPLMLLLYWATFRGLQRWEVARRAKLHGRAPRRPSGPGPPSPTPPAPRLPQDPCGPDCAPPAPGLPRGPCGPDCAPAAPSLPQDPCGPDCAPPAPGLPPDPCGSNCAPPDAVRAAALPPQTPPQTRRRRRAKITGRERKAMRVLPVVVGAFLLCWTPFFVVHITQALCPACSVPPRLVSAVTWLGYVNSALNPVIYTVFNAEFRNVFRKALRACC
Alpha-2A adrenergic receptor (Homo sapiens), sequence (P08913 whole entry): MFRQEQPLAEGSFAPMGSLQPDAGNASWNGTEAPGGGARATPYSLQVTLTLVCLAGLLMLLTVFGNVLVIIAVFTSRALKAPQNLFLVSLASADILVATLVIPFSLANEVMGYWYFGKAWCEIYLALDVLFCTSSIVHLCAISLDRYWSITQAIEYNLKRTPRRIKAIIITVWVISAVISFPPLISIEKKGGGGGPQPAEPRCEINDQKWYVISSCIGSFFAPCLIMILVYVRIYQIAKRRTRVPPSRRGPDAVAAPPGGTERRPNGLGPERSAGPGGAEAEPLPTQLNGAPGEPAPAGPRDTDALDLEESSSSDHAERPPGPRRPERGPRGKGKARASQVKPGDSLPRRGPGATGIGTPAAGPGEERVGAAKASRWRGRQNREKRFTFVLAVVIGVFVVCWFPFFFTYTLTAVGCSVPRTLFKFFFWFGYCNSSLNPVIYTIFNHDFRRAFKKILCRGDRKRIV
Kappa-type opioid receptor (Homo sapiens), sequence (P41145 whole entry): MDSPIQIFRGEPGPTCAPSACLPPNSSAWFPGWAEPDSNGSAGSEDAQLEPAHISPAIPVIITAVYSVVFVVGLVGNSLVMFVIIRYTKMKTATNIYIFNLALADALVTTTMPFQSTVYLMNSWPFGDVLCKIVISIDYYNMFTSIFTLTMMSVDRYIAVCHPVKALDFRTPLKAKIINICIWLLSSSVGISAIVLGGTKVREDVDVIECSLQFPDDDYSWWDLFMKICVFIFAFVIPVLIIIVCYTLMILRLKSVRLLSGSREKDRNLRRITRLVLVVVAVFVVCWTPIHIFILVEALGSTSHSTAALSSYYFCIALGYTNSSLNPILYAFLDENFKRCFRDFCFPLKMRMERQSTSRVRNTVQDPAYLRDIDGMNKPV
Beta-2 adrenergic receptor (Homo sapiens), sequence (P07550 whole entry, looked up): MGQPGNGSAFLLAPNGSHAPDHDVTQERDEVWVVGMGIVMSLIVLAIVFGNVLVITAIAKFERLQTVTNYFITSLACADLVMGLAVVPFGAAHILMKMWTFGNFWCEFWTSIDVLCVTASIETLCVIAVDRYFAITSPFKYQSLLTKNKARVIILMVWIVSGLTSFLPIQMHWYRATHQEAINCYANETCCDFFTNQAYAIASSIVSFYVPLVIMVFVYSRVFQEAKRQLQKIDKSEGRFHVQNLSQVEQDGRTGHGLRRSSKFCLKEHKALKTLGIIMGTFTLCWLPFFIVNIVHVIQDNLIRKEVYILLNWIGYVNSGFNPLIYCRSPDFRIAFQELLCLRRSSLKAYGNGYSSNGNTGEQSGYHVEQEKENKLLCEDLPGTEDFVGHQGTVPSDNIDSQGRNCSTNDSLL
Endothelin-1 receptor (Homo sapiens), sequence (P25101 whole entry): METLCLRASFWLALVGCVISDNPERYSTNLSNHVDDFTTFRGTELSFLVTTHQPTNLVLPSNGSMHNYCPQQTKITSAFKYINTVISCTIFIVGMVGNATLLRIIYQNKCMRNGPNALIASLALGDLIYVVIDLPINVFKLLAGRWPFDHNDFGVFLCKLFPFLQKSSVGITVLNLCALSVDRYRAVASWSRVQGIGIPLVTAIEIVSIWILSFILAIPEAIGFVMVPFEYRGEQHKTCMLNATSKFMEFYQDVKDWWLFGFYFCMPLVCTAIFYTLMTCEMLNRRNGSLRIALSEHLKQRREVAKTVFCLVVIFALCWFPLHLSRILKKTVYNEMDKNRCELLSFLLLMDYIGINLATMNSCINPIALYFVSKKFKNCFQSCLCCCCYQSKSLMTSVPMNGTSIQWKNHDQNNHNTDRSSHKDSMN
5-hydroxytryptamine receptor 2B (Homo sapiens), sequence (P41595 whole entry): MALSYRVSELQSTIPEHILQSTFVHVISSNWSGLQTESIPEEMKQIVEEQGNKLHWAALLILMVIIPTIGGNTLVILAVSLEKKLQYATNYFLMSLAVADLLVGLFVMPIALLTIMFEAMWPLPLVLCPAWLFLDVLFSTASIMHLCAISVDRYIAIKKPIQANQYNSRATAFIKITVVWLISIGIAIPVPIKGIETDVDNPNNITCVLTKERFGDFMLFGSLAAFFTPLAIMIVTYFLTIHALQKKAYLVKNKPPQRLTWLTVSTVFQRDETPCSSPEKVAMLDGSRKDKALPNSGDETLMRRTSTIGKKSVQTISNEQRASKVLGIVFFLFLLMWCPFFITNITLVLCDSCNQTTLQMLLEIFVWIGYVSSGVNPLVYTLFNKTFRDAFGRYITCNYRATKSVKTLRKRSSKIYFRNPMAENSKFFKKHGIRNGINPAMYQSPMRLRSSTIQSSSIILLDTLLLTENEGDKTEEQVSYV
Neuronal acetylcholine receptor subunit alpha-7 (Rattus norvegicus), sequence (Q05941 whole entry): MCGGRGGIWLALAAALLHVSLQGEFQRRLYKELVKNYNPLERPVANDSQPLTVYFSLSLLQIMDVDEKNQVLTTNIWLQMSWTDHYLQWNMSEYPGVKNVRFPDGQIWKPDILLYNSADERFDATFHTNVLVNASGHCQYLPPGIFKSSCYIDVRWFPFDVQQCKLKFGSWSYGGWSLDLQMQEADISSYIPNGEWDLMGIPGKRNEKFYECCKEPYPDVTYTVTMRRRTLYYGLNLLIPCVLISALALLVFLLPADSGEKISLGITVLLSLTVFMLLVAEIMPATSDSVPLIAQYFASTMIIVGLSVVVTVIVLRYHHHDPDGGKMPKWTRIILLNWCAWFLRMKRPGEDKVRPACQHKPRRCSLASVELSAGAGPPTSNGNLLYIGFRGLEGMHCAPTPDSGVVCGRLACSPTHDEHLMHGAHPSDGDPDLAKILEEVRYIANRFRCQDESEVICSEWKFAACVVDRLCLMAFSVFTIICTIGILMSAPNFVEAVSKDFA
Endothelin receptor type B (Homo sapiens), sequence (P24530 whole entry): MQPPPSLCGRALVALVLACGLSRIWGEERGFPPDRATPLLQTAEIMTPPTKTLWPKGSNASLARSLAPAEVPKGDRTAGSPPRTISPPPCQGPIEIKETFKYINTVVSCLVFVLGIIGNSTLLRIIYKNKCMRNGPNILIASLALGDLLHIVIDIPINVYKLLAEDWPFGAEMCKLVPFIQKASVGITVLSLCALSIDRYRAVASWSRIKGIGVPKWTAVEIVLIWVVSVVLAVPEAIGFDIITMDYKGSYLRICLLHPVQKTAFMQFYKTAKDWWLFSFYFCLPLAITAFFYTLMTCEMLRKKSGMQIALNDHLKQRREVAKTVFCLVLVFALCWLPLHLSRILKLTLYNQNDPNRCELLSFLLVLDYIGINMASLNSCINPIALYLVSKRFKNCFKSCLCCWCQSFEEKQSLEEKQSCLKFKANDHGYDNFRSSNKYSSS

With `CCOC(=O)N1CCC(CN2CCC3(CC2)CN(C(=O)N(C)C)c2ncccc23)CC1.O=C(O)/C=C/C(=O)O` the Vd [1] was 2.3 L/kg, the Intrinsic activity [2] was 2% and the Intrinsic activity [3] was 11%. For the same compound, the ED50 (Rattus norvegicus [4]) was 1.44 mg/kg, the inhibition [5] was 21% and the inhibition [6] was -7%. The inhibition [7] was -1%, the inhibition at 3 µM [8] was -21% and the inhibition at 3 µM [9] was 11%. The inhibition [10] was 2%, the inhibition [11] was 4% and the inhibition [12] was 10%. It also gave an inhibition [13] of -1%, an inhibition (Rattus norvegicus [14]) of -5% and an inhibition (Rattus norvegicus [15]) of 14%. It also gave an inhibition [16] of 0%, an inhibition (Homo sapiens) of 9% and an inhibition [17] of 11%. The inhibition [18] was 13%, the inhibition [19] was 7% and the inhibition (Oryctolagus cuniculus) was 3%. The inhibition (Rattus norvegicus [20]) was 16%, the inhibition [21] was 11% and the inhibition [22] was -10%. It also gave an Activity [23] of 76%, an Activity [24] of 2% and an IC50 [25] of over 10 µM. It also gave a logP [26] of 1.3, a Cmax [27] of 207 ng/mL and a Vd [28] of 1.8 L/kg. It also gave an inhibition (Cricetinae) of 6%.
